Assay results published in US9193728B2, “Fused tetracyclic pyrido [4,3-B] indole and pyrido [3,4-B] indole derivatives and methods of use” (Medivation Technologies, Inc., priority 2010, dated 2015).

Key:
[1] = target: T1, human recombinant histamine H1 receptor (Homo sapiens, UniProt P35367); assay: Histamine H1 radioligand binding ([3H]Pyrilamine); settings: compound at 1 μM; 1.2 nM [3H]Pyrilamine; read-out: Histamine Binding (1 μM) H1, percentage inhibition
T1 construct: expressed in transfected cells; host or cells: CHO-K1
Protocol: To evaluate in radioligand binding assays the activity of compounds of the invention, human recombinant histamine H1 receptor expressed in Chinese hamster ovary (CHO) K1 cells (De Backer, M. et al, Biochem. Biophys. Res. Comm. 197(3):1601, 1993) in a modified Tris-HCl buffer (50 mM Tris-HCl, pH 7.4, 2 mM MgCl2, 100 mM NaCl, 250 mM Sucrose) was used. Compounds of the invention were incubated with 1.2 nM [^3H]Pyrilamine for 180 min. at 25° C. Non-specific binding was estimated in the presence of 1 μM Pyrilamine. Receptor proteins were filtered and washed, the filters were then counted to determine [^3H]Pyrilamine specifically bound. Compounds were screened at 1 μM or lower, using 1% DMSO as vehicle. Biochemical assay results are presented as the percent inhibition of specific binding in Table 2.

[2] = target: T2, human recombinant dopamine D2L receptor (Homo sapiens, UniProt P14416); assay: Dopamine D2L radioligand binding ([3H]Spiperone); settings: compound at 1 μM; read-out: Dopamine (1 μM) D2L, percentage inhibition of ligand binding
T2 construct: expressed in transfected cells; host or cells: CHO
Protocol: To evaluate in radioligand binding assays the activity of compounds of the invention, human recombinant dopamine D2L receptor expressed in Chinese hamster ovary (CHO) cells (Grandy, D. et al, Proc. Natl. Acad. Sci. USA. 86:9762, 1989; Hayes, G. et al, Mol. Endocrinol. 6:920, 1992) in a modified Tris-HCl buffer (50 mM Tris-HCl, pH 7.4, 1.4 mM Ascorbic Acid, 0.001% BSA, 150 mM NaCl) was used. Compounds of the invention were incubated with 0.16 nM [^3H]Spiperone for 120 min. at 25° C. Non-specific binding was estimated in the presence of 10 μM Haloperidol. Receptor proteins were filtered and washed, the filters were then counted to determine [^3H]Spiperone specifically bound. Compounds were screened at 1 μM or lower, using 1% DMSO as vehicle. Biochemical assay results are presented as the percent inhibition of specific binding in Table 3.

[3] = target: T3, human recombinant serotonin (5-Hydroxytryptamine) 5-HT2C receptor (Homo sapiens, UniProt P28335); assay: Serotonin 5-HT2C radioligand binding ([3H]Mesulergine); settings: for inhibition at 1 µM: compound at 1 μM, read-out: Serotonin (1 μM) 5-HT2C, percentage inhibition of ligand binding
T3 construct: expressed in transfected cells; host or cells: CHO-K1
T3 sequence (P28335 33-458): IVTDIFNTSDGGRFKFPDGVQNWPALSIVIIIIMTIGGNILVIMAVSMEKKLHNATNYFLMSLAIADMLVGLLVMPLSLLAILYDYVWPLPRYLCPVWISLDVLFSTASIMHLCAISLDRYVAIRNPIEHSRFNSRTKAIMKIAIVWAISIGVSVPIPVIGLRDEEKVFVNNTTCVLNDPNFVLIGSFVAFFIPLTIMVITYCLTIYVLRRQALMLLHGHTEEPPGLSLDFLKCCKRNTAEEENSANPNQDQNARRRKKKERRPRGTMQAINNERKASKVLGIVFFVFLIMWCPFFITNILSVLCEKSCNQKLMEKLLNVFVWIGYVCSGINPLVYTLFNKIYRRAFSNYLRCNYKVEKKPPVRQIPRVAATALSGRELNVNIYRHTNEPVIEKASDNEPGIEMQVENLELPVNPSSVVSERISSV
Protocol: To evaluate in radioligand binding assays the activity of compounds of the invention, human recombinant serotonin (5-Hydroxytryptamine) 5-HT2C receptor expressed in Chinese hamster ovary (CHO)-K1 cells (Wolf, W. et al, J. Neurochem. 69:1449, 1997) in a modified Tris-HCl buffer (50 mM Tris-HCl, pH 7.4, 0.1% Ascorbic Acid, 10 μM Pargyline) was used. Compounds of the invention were incubated with 1 nM [^3H]Mesulergine for 60 min. at 25° C. Non-specific binding was estimated in the presence of 1 μM Mianserin. Receptor proteins were filtered and washed, the filters were then counted to determine [^3H]Mesulergine specifically bound. Compounds were screened at 1 μM or lower, using 1% DMSO as vehicle. Biochemical assay results are presented as the percent inhibition of specific binding in Table 4.

[4] = target: T4, human recombinant histamine H2 receptor (Homo sapiens, UniProt P25021); assay: Histamine H2 radioligand binding ([125I]Aminopotentidine); settings: compound at 1 μM; 0.1 nM [125I]Aminopotentidine; read-out: Histamine Binding (1 μM) H2, percentage inhibition
T4 construct: expressed in transfected cells; host or cells: CHO-K1
Protocol: To evaluate in radioligand binding assays the activity of compounds of the invention, human recombinant histamine H2 receptor expressed in Chinese hamster ovary (CHO) K1 cells (Ruat, M., Proc. Natl. Acad. Sci. USA. 87(5):1658, 1990) in a 50 mM Phosphate buffer, pH 7.4 was used. Compounds of the invention were incubated with 0.1 nM [^125I]Aminopotentidine for 120 min. at 25° C. Non-specific binding was estimated in the presence of 3 μM Tiotidine. Receptor proteins were filtered and washed, the filters were then counted to determine [^125I]Aminopotentidine specifically bound. Compounds were screened at 1 μM or lower, using 1% DMSO as vehicle. Biochemical assay results are presented as the percent inhibition of specific binding in Table 2.

[5] = target: T5, human recombinant serotonin (5-Hydroxytryptamine) 5-HT2A receptor (Homo sapiens, UniProt P28223); assay: Serotonin 5-HT2A radioligand binding ([3H]Ketanserin); settings: for inhibition at 1 µM: compound at 1 μM, read-out: Serotonin (1 μM) 5-HT2A, percentage inhibition of ligand binding
T5 construct: expressed in transfected cells; host or cells: CHO-K1
Protocol: To evaluate in radioligand binding assays the activity of compounds of the invention, human recombinant serotonin (5-Hydroxytryptamine) 5-HT2A receptor expressed in Chinese hamster ovary (CHO)-K1 cells (Bonhaus, D. et al, Br. J. Pharmacol. 115:622, 1995; Saucier, C. et al, J. Neurochem. 68:1998, 1997) in a 50 mM Tris-HCl buffer, pH 7.4, was used. Compounds of the invention were incubated with 0.5 nM [^3H]Ketanserin for 60 min. at 25° C. Non-specific binding was estimated in the presence of 1 μM Mianserin. Receptor proteins were filtered and washed, the filters were then counted to determine [^3H]Ketanserin specifically bound. Compounds were screened at 1 μM or lower, using 1% DMSO as vehicle. Biochemical assay results are presented as the percent inhibition of specific binding in Table 4.

[6] = target: T6, human recombinant serotonin (5-Hydroxytryptamine) 5-HT6 receptor (Homo sapiens, UniProt P50406); assay: Serotonin 5-HT6 radioligand binding ([3H]LSD); settings: for inhibition at 1 µM: compound at 1 μM, read-out: Serotonin (1 μM) 5-HT6, percentage inhibition of ligand binding
T6 construct: expressed in transfected cells; host or cells: HeLa
Protocol: To evaluate in radioligand binding assays the activity of compounds of the invention, human recombinant serotonin (5-Hydroxytryptamine) 5-HT6 receptor expressed in human HeLa cells (Monsma, F. Jr. et al, Mol. Pharmacol. 43:320, 1993) in a modified Tris-HCl buffer (50 mM Tris-HCl, pH 7.4, 150 mM NaCl, 2 mM Ascorbic Acid, 0.001% BSA) was used. Compounds of the invention were incubated with 1.5 nM [3H]Lysergic acid diethylamide (LSD) for 120 min. at 37° C. Non-specific binding was estimated in the presence of 5 μM Serotonin (5-HT). Receptor proteins were filtered and washed, the filters were then counted to determine [3H]LSD specifically bound. Compounds were screened at 1 μM or lower, using 1% DMSO as vehicle. Biochemical assay results are presented as the percent inhibition of specific binding in Table 4.

[7] = target: T7, human recombinant serotonin (5-Hydroxytryptamine) 5-HT7 receptor (Homo sapiens, UniProt P34969); assay: Serotonin 5-HT7 radioligand binding ([3H]LSD); settings: for inhibition at 1 µM: compound at 1 μM, read-out: Serotonin (1 μM) 5-HT7, percentage inhibition of ligand binding
T7 construct: expressed in transfected cells; host or cells: CHO
Protocol: To evaluate in radioligand binding assays the activity of compounds of the invention, human recombinant serotonin (5-Hydroxytryptamine) 5-HT7 receptor expressed in Chinese hamster ovary (CHO) cells (Roth, B. et al, J. Pharmacol. Exp. Ther. 268:1403, 1994; Shen, Y. et al, J. Biol. Chem. 268:18200, 1993) in a modified Tris-HCl buffer (50 mM Tris-HCl, pH 7.4, 10 mM MgCl2, 0.5 mM EDTA) was used. Compounds of invention were incubated with 5.5 nM [^3H]Lysergic acid diethylamide (LSD) for 120 min. at 25° C. Non-specific binding was estimated in the presence of 10 μM Serotonin (5-HT). Receptor proteins were filtered and washed, the filters were then counted to determine [^3H]LSD specifically bound. Compounds were screened at 1 μM or lower, using 1% DMSO as vehicle. Biochemical assay results are presented as the percent inhibition of specific binding in Table 4.

[8] = Stability of product in acidic medium (note in preparation); assay type: physicochemical

T5 sequence (P28223 whole entry): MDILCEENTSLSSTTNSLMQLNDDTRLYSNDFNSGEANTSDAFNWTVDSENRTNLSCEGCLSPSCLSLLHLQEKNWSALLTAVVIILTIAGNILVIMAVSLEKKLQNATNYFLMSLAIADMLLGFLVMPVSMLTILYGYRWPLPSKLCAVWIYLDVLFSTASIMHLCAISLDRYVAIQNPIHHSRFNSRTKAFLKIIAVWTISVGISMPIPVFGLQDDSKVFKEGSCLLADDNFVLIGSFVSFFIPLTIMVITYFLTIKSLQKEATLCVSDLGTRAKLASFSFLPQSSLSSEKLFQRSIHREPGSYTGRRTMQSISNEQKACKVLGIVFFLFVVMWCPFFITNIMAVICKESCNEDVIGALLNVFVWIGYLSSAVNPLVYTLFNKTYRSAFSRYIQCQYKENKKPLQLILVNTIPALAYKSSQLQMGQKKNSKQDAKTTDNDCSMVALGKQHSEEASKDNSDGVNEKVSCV
T4 sequence (P25021 whole entry): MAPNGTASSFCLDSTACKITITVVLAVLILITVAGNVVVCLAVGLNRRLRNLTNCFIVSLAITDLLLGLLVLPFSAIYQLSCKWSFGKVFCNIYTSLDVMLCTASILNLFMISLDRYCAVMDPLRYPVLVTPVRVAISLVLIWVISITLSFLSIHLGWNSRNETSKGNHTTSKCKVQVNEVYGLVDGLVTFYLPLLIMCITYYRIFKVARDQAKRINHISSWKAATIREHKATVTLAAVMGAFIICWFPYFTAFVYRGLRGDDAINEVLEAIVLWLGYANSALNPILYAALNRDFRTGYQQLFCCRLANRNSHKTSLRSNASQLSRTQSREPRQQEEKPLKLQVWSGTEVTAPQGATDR
T6 sequence (P50406 whole entry): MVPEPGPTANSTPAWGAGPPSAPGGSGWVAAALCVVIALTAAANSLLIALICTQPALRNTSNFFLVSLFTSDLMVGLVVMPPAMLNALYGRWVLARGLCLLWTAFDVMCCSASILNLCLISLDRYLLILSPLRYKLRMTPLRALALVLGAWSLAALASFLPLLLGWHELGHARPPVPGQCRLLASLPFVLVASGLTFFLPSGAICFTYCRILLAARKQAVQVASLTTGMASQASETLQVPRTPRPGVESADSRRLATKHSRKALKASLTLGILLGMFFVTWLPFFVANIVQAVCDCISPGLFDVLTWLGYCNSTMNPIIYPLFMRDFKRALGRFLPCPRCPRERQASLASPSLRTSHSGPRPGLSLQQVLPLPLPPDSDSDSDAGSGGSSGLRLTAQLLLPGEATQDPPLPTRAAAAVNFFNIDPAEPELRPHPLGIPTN
T1 sequence (P35367 whole entry): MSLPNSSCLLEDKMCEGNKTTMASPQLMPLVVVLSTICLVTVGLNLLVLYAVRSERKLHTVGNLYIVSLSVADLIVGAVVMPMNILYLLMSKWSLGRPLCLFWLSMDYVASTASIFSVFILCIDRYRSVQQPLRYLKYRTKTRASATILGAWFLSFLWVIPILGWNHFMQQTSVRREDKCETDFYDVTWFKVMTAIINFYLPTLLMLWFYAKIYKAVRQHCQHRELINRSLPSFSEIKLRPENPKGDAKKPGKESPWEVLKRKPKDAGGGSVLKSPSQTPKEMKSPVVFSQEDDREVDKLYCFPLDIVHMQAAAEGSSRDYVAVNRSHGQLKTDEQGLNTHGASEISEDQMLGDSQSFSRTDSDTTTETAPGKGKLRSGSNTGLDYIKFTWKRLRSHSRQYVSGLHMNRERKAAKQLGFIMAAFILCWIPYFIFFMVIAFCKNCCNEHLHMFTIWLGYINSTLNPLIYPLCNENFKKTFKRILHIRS
T2 sequence (P14416 whole entry): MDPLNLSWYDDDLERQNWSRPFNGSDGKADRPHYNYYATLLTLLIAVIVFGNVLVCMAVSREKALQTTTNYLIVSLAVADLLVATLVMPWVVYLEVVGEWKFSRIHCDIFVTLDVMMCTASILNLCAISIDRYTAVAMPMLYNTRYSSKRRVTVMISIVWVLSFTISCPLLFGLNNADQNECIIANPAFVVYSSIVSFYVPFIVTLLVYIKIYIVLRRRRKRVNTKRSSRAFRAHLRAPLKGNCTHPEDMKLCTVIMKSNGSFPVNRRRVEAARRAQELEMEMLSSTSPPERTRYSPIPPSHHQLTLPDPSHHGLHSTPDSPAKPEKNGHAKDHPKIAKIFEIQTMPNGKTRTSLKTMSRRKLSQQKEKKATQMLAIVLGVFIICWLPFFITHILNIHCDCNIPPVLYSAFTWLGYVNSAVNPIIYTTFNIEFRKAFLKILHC
T7 sequence (P34969 whole entry): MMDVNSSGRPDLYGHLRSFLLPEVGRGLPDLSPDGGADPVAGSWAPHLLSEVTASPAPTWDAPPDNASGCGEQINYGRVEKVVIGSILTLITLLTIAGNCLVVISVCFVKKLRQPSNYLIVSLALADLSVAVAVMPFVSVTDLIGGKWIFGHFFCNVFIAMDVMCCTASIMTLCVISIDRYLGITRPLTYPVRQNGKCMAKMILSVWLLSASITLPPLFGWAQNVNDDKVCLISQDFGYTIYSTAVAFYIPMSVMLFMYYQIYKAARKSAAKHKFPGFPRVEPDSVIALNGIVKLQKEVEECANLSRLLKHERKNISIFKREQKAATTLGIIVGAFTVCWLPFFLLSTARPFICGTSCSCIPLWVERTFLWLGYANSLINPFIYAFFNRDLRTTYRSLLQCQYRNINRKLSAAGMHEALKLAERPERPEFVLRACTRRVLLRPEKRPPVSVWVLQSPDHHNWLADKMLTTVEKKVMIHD

Row | SMILES | inhibition at 1 µM [1] [%] | inhibition at 1 µM [2] [%] | inhibition at 1 µM [3] [%] | inhibition at 1 µM [4] [%] | inhibition at 1 µM [5] [%] | inhibition at 1 µM [6] [%] | inhibition at 1 µM [7] [%] | stability in acidic medium [8] | inhibition at 0.1 µM ([7]; compound at 0.1 μM, read-out: Serotonin (0.1 μM) 5-HT7, percentage inhibition of ligand binding) [%] | inhibition at 0.1 µM ([3]; compound at 0.1 μM, read-out: Serotonin (0.1 μM) 5-HT2C, percentage inhibition of ligand binding) [%] | inhibition at 0.1 µM ([5]; compound at 0.1 μM, read-out: Serotonin (0.1 μM) 5-HT2A, percentage inhibition of ligand binding) [%] | inhibition at 0.1 µM ([6]; compound at 0.1 μM, read-out: Serotonin (0.1 μM) 5-HT6, percentage inhibition of ligand binding) [%]
1 | Cc1cc2c3c(c1)c1c(n3CC(c3ccc(C)nc3)C2)CCN(C)C1 (stereo not drawn) [Compound 1] | 44 | -1 | 19 | 42 | 20 | 24 |  |  |  |  |  | 
2 | Cc1cc2c3c(c1)c1c(n3CC2c2ccc(F)cc2)CCN(C)C1 (stereo not drawn) [Compound 2] | 66 | 17 | 92 | 48 | 87 | 57 | 89 |  |  |  |  | 
3 | Cc1cc2c3c(c1)c1c(n3CCO2)CCN(C)C1 [Compound 4, 5,8-dimethyl-1,2,7,8,9,10-hexahydro-[1,4]oxazino[2,3,4-hi]pyrido[4,3-b]indole] | 53 | 6 | 79 | 10 | 56 | 25 | 46 |  |  |  |  | 
4 | Cc1cc2c3c(c1)c1c(n3CC(c3ccc(F)cc3)=C2)CCN(C)C1 [Compound 158] | 27 | 99 |  |  |  |  |  | unstable in acidic medium | 36 | 55 | 81 | 82
